Experimental data as given in PMC9516243, “Design of stapled peptide-based PROTACs for MDM2/MDMX atypical degradation and tumor suppression” (Theranostics, 2022).
Values joined by “and” are separate entries in the source; they are usually repeats but may differ in a detail not shown here. Equal values may be shown once.

Experiments:
circular dichroism = settings: phosphate buffer (PB); pH 7.2; 20 °C; 10-50 uM
^25-109MDM2 = target: T1, ^25-109MDM2 (Homo sapiens, UniProt Q00987); experiment: FP-based competitive binding assay; settings: MDM2 40 nM, fluorescently tagged p53 peptide 20 nM, PBS pH 7.4, 30 min room temperature; mean of three independent measurements
T1 construct: established using ^25-109MDM2, ^24-108MDMX
Procedure: (§1) An FP-based competitive or binding assay was established using ^25-109MDM2, ^24-108MDMX, and a fluorescently tagged p53-derived peptide as previously described. [34]-[36] For dose-dependent competitive binding experiments, MDM2 or MDMX protein (40 nM) was first incubated with TAMRA-p53 peptide (20 nM) in PBS (pH 7.4) on a Costar 96-well plate, to which a serially diluted solution of test peptide was added to a final volume of 125 μL. After 30 min of incubation at room temperature, the FP values were measured at λex = 530 nm and λem = 580 nm on a Tecan Infinite M1000 plate reader. For binding experiments, FITC-labeled SPMI-HIF2-1 (20 nM) was incubated with different concentrations of MDM2, MDMX, and VHL proteins. Curve fitting was performed using GraphPad Prism software, and Ki values were calculated as described previously. Three replicates and three independent experiments were performed.

^24-108MDMX = target: T2, ^24-108MDMX (Homo sapiens, UniProt O15151); experiment: FP-based competitive binding assay; settings: MDMX 40 nM, fluorescently tagged p53 peptide 20 nM, PBS pH 7.4, 30 min room temperature; mean of three independent measurements
T2 construct: ^24-108MDMX, and a fluorescently tagged p53-derived peptide
T2 sequence (O15151 24-108): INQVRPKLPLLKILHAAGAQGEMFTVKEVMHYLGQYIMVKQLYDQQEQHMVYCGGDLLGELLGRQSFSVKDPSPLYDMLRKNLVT
Procedure: as §1

[1] = α-Helicity by CD spectroscopy; type: physicochemical; settings: PB pH 7.2, 10-50 µM peptide, 20°C, calculated from [θ]222
Procedure: Peptides were dissolved in PB (pH = 7.2) to concentrations ranging from 10 to 50 µM. CD spectra were obtained on a Jasco J-715 spectropolarimeter at 20°C. The spectra were collected using a 0.1 cm path length quartz cuvette with the following measurement parameters: wavelength, 185-255 nm; step resolution, 0.1 nm; speed, 20 nm/min; accumulations, 6; bandwidth, 1 nm. The helical content of each peptide was calculated as reported previously.

Pharmacokinetic study = type: in vivo; settings: mouse, iv, male ICR mice, 1.8 mg/kg single i.v. tail vein, plasma, UPLC-ESI-QqQ-MS, n = 5; for Cmax: mean; for half-life: read-out: half-life (t1/2) (converted)
Procedure: The peptides (1.8 mg/kg) were individually dosed in mice intravenously via tail vein injection and the blood samples were collected from the orbital venous plexus at 0, 0.5, 1, 2, 4, 6, 10, 24, and 48 h. All blood samples were centrifuged at 3000 rpm for 10 min, and the obtained plasma samples were immediately frozen at -80 °C until use. The standard curve was established as follows: Stock solutions of PMI-HIF1-1 and SPMI-HIF2-1 dissolved in acetonitrile were spiked into control plasma at final concentrations of 4000, 2000, 1000, 500, 250, 125, 62.5, 31.25, 15.625, 7.8125, 3.90625, 1.953125, and 0.9765625 ng/ml. […] Plasma samples (30 μL) were treated with 90 μL acetonitrile for protein precipitation. Then all samples were vortexed for 2 min and centrifuged for 15 min at 13000 rpm and 4°C. The supernatants were analyzed by ultraperformance liquid chromatography-electrospray ionization-tandem triple quadrupole mass spectrometry (UPLC-ESI-QqQ-MS, Shimadzu 8040). The system was equipped with an XBridge BEH C18 column (2.5 μm, 2.1×100 mm; Waters, Milford, MA, USA). The column temperature was set at 35°C. The injection volume was 4 μl. […] The plasma concentration at each time point was calculated from the extracted peak area of the same mass peaks of each peptide using the corresponding standard curve.

α-Chymotrypsin = experiment: Proteolytic stability against chymotrypsin; type: in vitro ADME; settings: chymotrypsin 5 ng/μl (10 μl) added to 1 ml of 1 mM peptide, PBS 50 mM pH 7.4, 2 mM CaCl2, 25°C, HPLC, within 10 min, read-out: peptide digested within 10 min
Procedure: Peptides were dissolved in PBS (50 mM, pH = 7.4) to a final concentration of 1 mM. α-Chymotrypsin was dissolved in PBS (50 mM, containing 2 mM of CaCl2, pH = 7.4) to a final concentration of 5 ng/μl. Then the peptide solutions (1 ml) were incubated with […] (10 μl) at 25°C. Samples were taken at 0, 5, 30, 60, 90, and 120 min and reactions were quenched with 20 μL of hydrochloric acid (1 M). The solution of the trypsin peptide fragments was monitored by HPLC at different time points to determine the fraction of protease degradation.

HCT116 p53^-/- cells = experiment: Cell viability assay (CCK-8); type: cell-based, human; settings: CCK-8, 72 h incubation, absorbance 450 nm; read-out: IC50 (μM) HCT116 p53^-/-
Procedure: (§2) The human colon carcinoma cell line HCT116 p53^+/+ was obtained from the Cell Bank of the Chinese Academy of Sciences (Shanghai, China). HCT116 p53^-/- cells were generously provided by Prof. Vogelstein of Johns Hopkins University. Both cell lines were cultured in McCoy's 5A medium (Gibco, USA) containing 10% FBS, 100 units/ml penicillin, and 100 μg/ml streptomycin at 37 °C in a humidified incubator containing 5% CO2. Cell viability was measured using a Cell Counting Kit-8 (CCK-8) (Dojindo, Kumamoto, Japan) according to the manufacturer's instructions. In brief, the cells (5 × 10^3 cells/well in […] medium) were cultured for 24 h in 96-well microplates in a humidified 5% CO2 incubator at 37 °C and then treated with varying concentrations of compounds or 0.1% DMSO vehicle control.

HCT116 p53^+/+ cells = experiment: Cell viability assay (CCK-8); type: cell-based, human; settings: CCK-8, 72 h incubation, absorbance 450 nm; read-out: IC50 (μM) HCT116 p53^+/+
Procedure: as §2

SMILES	helicity (circular dichroism)	Ki (^25-109MDM2)	Ki (^24-108MDMX)	α-helicity (%) [1]	Cmax (Pharmacokinetic study)	AUC(0-inf) (Pharmacokinetic study)	MRT (Pharmacokinetic study)	half-life (Pharmacokinetic study)	metabolised at 10 min, 1 mM (α-Chymotrypsin)	IC50 (HCT116 p53^-/- cells)	IC50 (HCT116 p53^+/+ cells)
CC(=O)N[C@H](C(=O)N[C@@H](CO)C(=O)N[C@@H](Cc1ccccc1)C(=O)N[C@@H](C)C(=O)N[C@@H](CCC(=O)O)C(=O)N[C@@H](Cc1ccc(O)cc1)C(=O)N[C@@H](Cc1c[nH]c2ccccc12)C(=O)N[C@@H](C)C(=O)N[C@@H](CC(C)C)C(=O)N[C@@H](CC(C)C)C(=O)N[C@@H](CO)C(=O)NCCOCC(=O)N[C@@H](CC(C)C)C(=O)N[C@@H](C)C(=O)N1C[C@H](O)C[C@H]1C(=O)N[C@@H](Cc1ccc(O)cc1)C(=O)N[C@@H](CCC(C)C)C(=O)N1CCC[C@H]1C(N)=O)[C@@H](C)O [PMI-HIF1-1]	17%	450 nM	290 nM and 620 nM	17%	14700 ng/mL	8600 ng·h/mL	0.7 h	78 min	> 80%	> 100 µM	> 100 µM
CC(=O)N[C@H](C(=O)N[C@@H](CO)C(=O)N[C@@H](Cc1ccccc1)C(=O)N[C@]1(C)CCCCCCC=CCCC[C@@](C)(C(N)=O)NC(=O)[C@H](CC(C)C)NC(=O)[C@H](CC(C)C)NC(=O)[C@H](C)NC(=O)[C@H](Cc2c[nH]c3ccccc23)NC(=O)[C@H](Cc2ccc(O)cc2)NC(=O)[C@H](CCC(=O)O)NC1=O)[C@@H](C)O [SPMI2]	–	–	620 nM and 290 nM	5%	30000 ng/mL	78600 ng·h/mL	10.9 h	474 min	–	> 100 µM	28.4 µM
